Results reported in publication PMC11219871, “Epigenetic-based differentiation therapy for Acute Myeloid Leukemia” (Nature Communications, 2024).
Converted amounts (≈) assume the structure as drawn. “And” between values parts separate entries of the source, which are not always exact repeats. Equal entries are not always repeated.

Experiments:
G9a = biological target: T1, G9a (Homo sapiens, UniProt Q96KQ7); assay: Epigenetic panel (BPS Bioscience); G9a TR-FRET IC50; type: biochemical
T1 sequence (Q96KQ7 1-1210): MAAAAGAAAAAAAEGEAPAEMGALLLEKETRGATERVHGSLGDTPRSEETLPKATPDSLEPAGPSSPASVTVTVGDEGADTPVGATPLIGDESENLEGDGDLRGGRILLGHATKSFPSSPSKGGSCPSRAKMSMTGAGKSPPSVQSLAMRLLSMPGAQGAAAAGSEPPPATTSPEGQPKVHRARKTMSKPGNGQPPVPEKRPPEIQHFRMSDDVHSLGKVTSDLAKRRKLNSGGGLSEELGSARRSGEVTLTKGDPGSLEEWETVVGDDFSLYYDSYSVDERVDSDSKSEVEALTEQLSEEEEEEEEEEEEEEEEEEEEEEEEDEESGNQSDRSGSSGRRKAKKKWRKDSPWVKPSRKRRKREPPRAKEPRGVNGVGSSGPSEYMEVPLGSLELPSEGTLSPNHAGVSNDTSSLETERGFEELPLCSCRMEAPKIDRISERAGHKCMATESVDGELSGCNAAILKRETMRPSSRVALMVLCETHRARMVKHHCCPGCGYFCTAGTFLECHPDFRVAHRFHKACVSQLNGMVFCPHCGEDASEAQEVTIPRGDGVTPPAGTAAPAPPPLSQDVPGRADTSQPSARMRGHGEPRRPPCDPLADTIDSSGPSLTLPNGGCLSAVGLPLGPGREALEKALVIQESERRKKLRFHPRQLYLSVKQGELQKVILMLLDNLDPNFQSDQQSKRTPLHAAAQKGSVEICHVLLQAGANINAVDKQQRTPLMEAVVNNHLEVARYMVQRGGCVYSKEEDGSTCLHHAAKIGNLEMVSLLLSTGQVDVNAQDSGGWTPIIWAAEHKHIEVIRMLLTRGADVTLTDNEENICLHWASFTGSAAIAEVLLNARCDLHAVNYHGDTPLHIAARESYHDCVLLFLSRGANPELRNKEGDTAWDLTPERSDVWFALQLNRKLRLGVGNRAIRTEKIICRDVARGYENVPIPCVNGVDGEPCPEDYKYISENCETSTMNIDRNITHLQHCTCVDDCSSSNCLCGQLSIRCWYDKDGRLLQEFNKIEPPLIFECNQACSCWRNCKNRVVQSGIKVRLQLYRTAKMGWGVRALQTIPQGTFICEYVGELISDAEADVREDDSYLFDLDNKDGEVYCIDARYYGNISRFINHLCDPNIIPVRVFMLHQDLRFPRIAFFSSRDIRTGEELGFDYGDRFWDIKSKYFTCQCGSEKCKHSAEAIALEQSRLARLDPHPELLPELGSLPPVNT
Description: DNMT1 and G9a IC50 values were measured using time-resolved fluorescence energy transfer assays, as described previously[18],[25],[26].
Binding experiments were performed in duplicate at a concentration of 10 μM.

[1] = tested on: ML-2 xenograft in BALB/cA Rag2-/-γc-/- mice; assay: Subcutaneous xenograft model (tumor volume, CD11b q-PCR, H3Ac, body weight); type: in vivo, mouse; conditions: for Tumor volume: ML-2 subcutaneous xenograft, individual mice (Fig 3B); for body weight of mice: subcutaneous ML-2 AML mouse model, individual mice
Description: (§1) The subcutaneous xenograft models of ML-2 and MV4-11 derived cells, 5 × 10^6 and 10 × 10^6 cells, respectively, diluted in 100 µL of saline solution were subcutaneously inoculated in the back left flank of female BALB/cA Rag2^−/−γc^−/− mice. When tumors became palpable, the mice were randomized into three groups: vehicle, CM-444 and CM-1758, (eight animals/group). Treatment with 10 mg/kg of CM-444 or CM-1758 i.p. was started 4 days after injection when all mice presented subcutaneous tumors and was administered for 5 consecutive days followed by 2 resting days over 3 weeks for the ML-2 model or daily for 2 weeks for the MV4-11 model. The control group received only 80% saline solution, 10% DMSO […] 10% Tween 20 (diluents of CM-444 and CM-1758). Tumor size was analyzed every 2–3 days using the following method: […], where D and d corresponded to the longest and shortest diameter, respectively. The maximal tumor size/burden permitted by the Animal Care and Ethics Committee of the University of Navarra is 2000 mm^3. This maximal tumor size/burden was not exceeded in any case. ML-2 and MV4-11 tumors were explanted for differentiation and global histone acetylation analysis. Histones were extracted, and a western blot of H3Ac was performed as described above. For the differentiation study, RNA was extracted, and q-PCR of CD11b was performed as described above (CD11b sequence primer can be found in Supplementary Table 10).

[2] = tested on: MV4-11 xenograft in BALB/cA Rag2-/-γc-/- mice; assay: as above; type: in vivo, mouse; conditions: for Tumor volume: MV4-11 subcutaneous xenograft, in mm³; for Tumor volume / body weight of mice: individual mice; for body weight of mice: subcutaneous MV4-11 AML mouse model
Description: as §1

[3] = tested on: MOLM-13 i.v. in BALB/cA Rag2-/-γc-/- mice; assay: Intravenous xenograft model (survival, CD11b in blood, body weight); type: in vivo, mouse
Kinetic solubility = type: physicochemical; conditions: PBS buffer, aqueous buffer, kinetic from dmso stock, pH 7.4, PBS
Description: This study was conducted at Wuxi (http://www.wuxi.com/). Stock solutions of test compounds (10 mM; 100% DMSO) and 490 μL of PBS buffer at pH = 7.4 were added in the lower chamber of Whatman’s Mini-Uniprep vials. After vortex mixing for ≥2 min, the vials were shaken at 800 rpm for 24 h and finally centrifuged at 1520 g for 20 min. The concentration of the filtrate was quantified by HPLC (calibration curve from 1.5624 μM to 200 μM). Amiodarone hydrochloride, carbamazepine and chloramphenicol were used as controls.

## COc1cc2nc(-c3ccc(C)o3)cc(NCC3CCN(c4ncc(C(=O)NO)cn4)CC3)c2cc1OC [CM-444, 2-[4-[[[6,7-dimethoxy-2-(5-methyl-2-furyl)-4-quinolyl]amino]methyl]-1-piperidyl]pyrimidine-5-carbohydroxamic acid]
G9a
  IC50: > 10 µM
G9a; 10 µM
  inhibition at 10 µM: 0%
[1]; ML-2 s.c., 10 mg/kg i.p.
  CD11b expression in explanted tumors: significant increase in CD11b expression
  H3Ac levels in tumors: increase in H3Ac levels
[1]; ML-2 s.c., 10 mg/kg i.p., 5 days on/2 off, 3 weeks
  tumor growth: inhibited tumor growth significantly
[1]; day 0, in mm³
  Tumor volume: 0
[1]; day 8
  Tumor volume: 50.29 and 0 (2×) and 44.4222 and 26.1593 and 17.7985 and 33.6927 and 34.1731
  body weight of mice: 23 and 21.7 (2×) and 22.6 and 22.9 and 19.8 and 23.2 and 21.8
[1]; day 11, in mm³
  Tumor volume: 57.5494 and 54.0642 and 29.9608 and 34.453 and 70.3613 and 12.6567 and 13.356 and 62.0802
[1]; day 13, in mm³
  Tumor volume: 71.0807 and 75.9644 and 34.9942 and 17.4964 and 64.0599 and 59.7475 and 31.61 and 81.1976
[1]; day 15, in mm³
  Tumor volume: 260.999 and 204.675 and 90.5639 and 88.4341 and 135.48 and 171.734 and 101.038 and 206.002
[1]; day 18, in mm³
  Tumor volume: 480.691 and 730.912 and 126.029 and 148.778 and 375.191 and 457.823 and 357.768 and 468.956
[1]; day 20, in mm³
  Tumor volume: 765.508 and 824.168 and 527.843 and 397.65 and 611.294 and 688.039 and 576.047 and 641.268
[1]; after in vivo treatment, subcutaneous ML-2 mouse model, western blot, individual tumors
  Relative H3Ac/H3 total levels: 1.215 and 1.184 and 2.112 and 1.745 and 1.414 and 2.588
[1]; day 4, in g (unit assumed)
  body weight of mice: 25.5 and 22.7 and 24.1 and 24.4 and 23.6 and 21.4 and 26.1 and 23.7
[1]; day 6, in g (unit assumed)
  body weight of mice: 24.2 and 22.1 and 23.5 and 23 and 22.4 and 20.6 and 24.7 and 22.8
[1]; day 11, in g (unit assumed)
  body weight of mice: 25 and 22 and 24 and 24.2 and 22.6 and 21.1 and 24.3 and 21.9
[1]; day 13, in g (unit assumed)
  body weight of mice: 24.5 and 21.9 and 23.2 and 22.6 and 22.9 and 21.2 and 24.7 and 22.3
[1]; day 15
  body weight of mice: 24.9 and 22.5 and 22.9 and 22.2 (2×) and 21.3 and 24.8 and 22.1
[1]; day 18, in g (unit assumed)
  body weight of mice: 24.7 and 23.2 and 23.6 and 22 and 23 and 21.6 and 24.9 and 23.5
[1]; day 20
  body weight of mice: 24.4 and 23.5 and 23.1 (2×) and 20.8 and 21.2 and 25.5 and 23.3
[1]; tumors of the subcutaneous ML-2 model, individual tumors (Fig 3C)
  CD11b expression from tumors measured by q-PCR: 4.258 log10 (2-ΔΔCt) and 6.115 log10 (2-ΔΔCt) and 1.258 log10 (2-ΔΔCt) and 2.581 log10 (2-ΔΔCt) and 3.258 log10 (2-ΔΔCt)
[2]; MV4-11 s.c., 10 mg/kg i.p.
  CD11b expression in explanted tumors: significant increase in CD11b expression
  H3Ac levels in tumors: increase in H3Ac levels
[2]; MV4-11 s.c., 10 mg/kg i.p. daily, 2 weeks
  tumor growth: very close to significance
[2]; day 0
  Tumor volume: 0
[2]; day 7
  Tumor volume: 3.193
  body weight of mice: 20.3 and 18.1 and 19.6 (2×) and 20.5 and 18.3 and 21.6 and 18.4 and 21 and 20.7
[2]; day 9
  Tumor volume: 111.805 and 139.808 and 128.905 and 58.5153 and 61.4614 and 71.8536 and 82.1349 and 57.0445 and 0 and 108.84
  body weight of mice: 20.7 (2×) and 19.1 (2×) and 20.2 and 19.2 and 20.4 (2×) and 18.9 and 20.6
[2]; day 12
  Tumor volume: 294.457 and 409.686 and 535.985 and 179.87 and 403.211 and 161.575 and 360.839 and 457.558 and 8.3776 and 264.463
  body weight of mice: 22.2 (2×) and 19.1 and 21.6 and 20 and 22.4 and 20.6 and 23 and 20.1 and 22.6
[2]; day 14
  Tumor volume: 459.841 and 410.79 and 840.745 and 257.398 and 607.597 and 355.301 and 487.51 and 302.43 and 18.6928 and 395.414
  body weight of mice: 22.1 (2×) and 19.1 and 20.3 and 22.6 (3×) and 20.9 and 23.1 and 19.5
[2]; after in vivo treatment, subcutaneous MV4-11 mouse model, western blot, individual tumors
  Relative H3Ac/H3 total levels: 0.9852 and 1.143 and 1.277 and 1.092 and 1.163 and 1.09
[2]; day 1
  body weight of mice: 21.9 and 20.2 and 23.1 and 24.4 (2×) and 23 and 20.9 and 24.3 and 21.3 and 23.6
[2]; day 5, in g (unit assumed)
  body weight of mice: 20.4 and 18.7 and 20.7 and 21.6 and 21.5 and 19 and 21.7 and 18.8 and 21.2 and 21
[2]; day 16
  body weight of mice: 21 (2×) and 19.6 and 22 and 21.9 and 20.1 and 24.8 and 20.6 and 22.3 (2×)
[2]; tumors of the subcutaneous MV4-11 model, q-PCR, individual tumors
  CD11b expression, log10 (2-ΔΔCt): 1.258 and 2.58 and 3.158 and 0.925
[3]; MOLM-13 i.v., 10 mg/kg i.p.
  CD11b in blood samples: significant induction of CD11b
[3]; blood samples of mice engrafted intravenously with MOLM-13 cells, individual mice
  CD11b (%): 49.5% and 13.9% and 12.3% and 14% and 28.6% and 15.1% and 19.3% and 15% and 42.6% and 31.9% and 18% and 12.6%
Kinetic solubility
  solubility at 24 h: 118 µg/mL (≈ 227 µM)
